Active and inactive are the calls of the source. The calls are words filed in the database; no cut-off is given here.
Tests used:
[1] = molecular target: Cannabinoid receptor 1 (Homo sapiens) (UniProt P21554); assay: Agonist activity at human CB1 receptor expressed in CHO cells by [35S]GTPgammaS assay relative to CP-55940; format: functional, cell-based
[2] = molecular target: T1, Cannabinoid receptor 2 (Homo sapiens, UniProt P34972); assay: Agonist activity at human CB2 receptor expressed in CHO cells by [35S]GTPgammaS assay relative to CP-55940; format: functional, cell-based
[3] = molecular target: Cannabinoid receptor 1 (Homo sapiens) (UniProt P21554); assay: Displacement of [3H]CP-55940 from human CB1 receptor expressed in CHO cells at 1 uM by liquid scintillation counting; format: cell-based
[4] = molecular target: T1, Cannabinoid receptor 2; assay: Displacement of [3H](R)-3-methyl-2-(3-(morpholinomethyl)-3,4-dihydro-2H-benzo[b][1,4]oxazin-5-yl)-1-(naphthalen-1-yl)but-2-en-1-one from human CB2 receptor expressed in CHO cells at 1 uM by liquid scintillation counting; format: cell-based
[5] = molecular target: Cannabinoid receptor 1 (Homo sapiens) (UniProt P21554); assay: Displacement of [3H]CP-55940 from human CB1 receptor expressed in CHO cells at 10 uM by liquid scintillation counting; format: cell-based
[6] = molecular target: T1, Cannabinoid receptor 2; assay: Displacement of [3H](R)-3-methyl-2-(3-(morpholinomethyl)-3,4-dihydro-2H-benzo[b][1,4]oxazin-5-yl)-1-(naphthalen-1-yl)but-2-en-1-one from human CB2 receptor expressed in CHO cells at 10 uM by liquid scintillation counting; format: cell-based
[7] = molecular target: T1, Cannabinoid receptor 2; assay: Agonist activity at human CB2 receptor expressed in CHO cells by [35S]GTPgammaS assay; format: functional, cell-based
[8] = molecular target: Cannabinoid receptor 1 (Homo sapiens) (UniProt P21554); assay: Agonist activity at human CB1 receptor expressed in CHO cells at 3 uM by [35S]GTPgammaS assay relative to CP-55940; format: functional, cell-based
[9] = molecular target: T1, Cannabinoid receptor 2; assay: Displacement of [3H]CP-55940 from human CB2 receptor expressed in CHOK1 cells by liquid scintillation counting; format: cell-based, CHO-K1
[10] = molecular target: Cannabinoid receptor 1 (Homo sapiens) (UniProt P21554); assay: Agonist activity at human CB1 receptor expressed in CHO cells at 10 uM by [35S]GTPgammaS assay; format: functional, cell-based
[11] = molecular target: T1, Cannabinoid receptor 2; assay: Agonist activity at human CB2 receptor expressed in CHO cells at 3 uM by [35S]GTPgammaS assay relative to CP-55940; format: functional, cell-based
[12] = tested on: Rattus norvegicus; assay: Antiallodynic activity in AM-630-pretreated ip dosed spinal nerve ligated Sprague-Dawley rat model assessed as inhibition of tactile allodynia; format: functional, organism-based
[13] = tested on: Rattus norvegicus; assay: Antiallodynic activity in spinal nerve ligated Sprague-Dawley rat model assessed as inhibition of tactile allodynia at 10 mg/kg, ip; format: functional, organism-based; parameters: dose 10 mg/kg
[14] = tested on: Rattus norvegicus; assay: Antiallodynic activity in ip dosed spinal nerve ligated Sprague-Dawley rat model assessed as inhibition of tactile allodynia; format: functional
[15] = tested on: Rattus norvegicus; assay: Antiallodynic activity in spinal nerve ligated Sprague-Dawley rat model assessed as inhibition of tactile allodynia at 15 mg/kg, ip; format: functional, organism-based; parameters: dose 15 mg/kg
[16] = tested on: Rattus norvegicus; assay: Toxicity in Sprague-Dawley rat assessed as exploratory behavior at 15 mg/kg, ip by open-field chamber test; format: organism-based; parameters: dose 15 mg/kg, route intraperitoneal; details: in vivo

Cannabinoid receptor 1 (Homo sapiens), sequence (P21554 whole entry): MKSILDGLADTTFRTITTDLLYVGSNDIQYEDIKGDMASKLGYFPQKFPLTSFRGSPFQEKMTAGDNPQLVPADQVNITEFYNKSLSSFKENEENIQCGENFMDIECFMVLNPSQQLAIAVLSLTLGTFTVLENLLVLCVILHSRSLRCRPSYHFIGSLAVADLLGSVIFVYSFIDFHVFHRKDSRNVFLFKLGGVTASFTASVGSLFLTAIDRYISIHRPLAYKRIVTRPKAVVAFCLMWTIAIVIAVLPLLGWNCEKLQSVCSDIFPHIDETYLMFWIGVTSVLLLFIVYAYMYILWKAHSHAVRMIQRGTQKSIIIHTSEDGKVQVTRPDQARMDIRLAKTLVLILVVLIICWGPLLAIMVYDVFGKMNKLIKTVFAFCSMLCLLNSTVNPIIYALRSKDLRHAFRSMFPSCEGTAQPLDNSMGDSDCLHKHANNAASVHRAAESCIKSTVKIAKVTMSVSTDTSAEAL
T1 sequence (P34972 whole entry): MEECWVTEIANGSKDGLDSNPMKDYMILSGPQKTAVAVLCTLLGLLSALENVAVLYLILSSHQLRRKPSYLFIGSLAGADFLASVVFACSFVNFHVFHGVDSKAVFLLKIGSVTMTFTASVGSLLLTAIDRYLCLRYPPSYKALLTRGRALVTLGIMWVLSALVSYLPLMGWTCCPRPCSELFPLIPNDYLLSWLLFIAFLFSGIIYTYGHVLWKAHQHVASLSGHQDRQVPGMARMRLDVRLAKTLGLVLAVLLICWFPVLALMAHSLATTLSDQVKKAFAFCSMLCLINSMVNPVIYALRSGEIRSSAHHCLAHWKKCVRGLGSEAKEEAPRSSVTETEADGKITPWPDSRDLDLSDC

| Compound | Emax [2] | Activity [3] | Activity [4] | other results |
| --- | --- | --- | --- | --- |
| O=C(N/N=C1\C(=O)N(CC2CCCCC2)c2ccccc21)c1ccccc1 | 65.7% | 99% | 100% | Emax [1]: 99% |
| CCCCCCN1C(=O)/C(=N\NC(=O)c2ccc(Cl)cc2)c2ccccc21 |  | 46.6% | 32.7% |  |
| CCCCCCN1C(=O)/C(=N\NC(=O)Cc2ccccc2)c2ccccc21 | 45.8% |  |  | Activity [5]: 98.2%; Activity [6]: 91.5%; Emax [1]: 71.9% |
| O=C(N/N=C1\C(=O)N(Cc2ccccc2)c2ccccc21)c1ccccc1 | 92.7% | 87% | 55% | Emax [1]: 57%; EC50 [7]: 63.7 nM; Emax [8]: 57%; Ki [9]: 18.5 nM |
| O=C1/C(=N\NS(=O)(=O)c2ccccc2)c2ccccc2N1CCC1CCCCC1 |  |  |  | Activity [5]: < 40%; Activity [6]: < 40% |
| CCCCCCCCCCCCN1C(=O)/C(=N\NC(=O)c2ccccc2)c2ccccc21 |  | 23.8% | 24.3% |  |
| O=C1/C(=N\NC(=S)Nc2ccccc2)c2ccccc2N1CCC1CCCCC1 |  |  |  | Activity [5]: < 40%; Activity [6]: < 40% |
| CCCCCCN1C(=O)/C(=N\NC(=O)c2cccc3ccccc23)c2ccccc21 | 30.5% | 83.9% | 69.8% | Emax [8]: 12.9% |
| O=C(N/N=C1\C(=O)N(CCN2C(=O)c3ccccc3C2=O)c2ccccc21)c1ccccc1 |  | 3% | 3% |  |
| O=C(N/N=C1\C(=O)N(c2ccccc2)c2ccccc21)c1ccccc1 |  | 18% | 8% |  |
| CCCCCCN1C(=O)/C(=N\NC(=O)c2ccccc2)c2cccc(Cl)c21 | 64.8% | 60% | 29% | Activity [1]: inactive; Activity [10]: inactive |
| CCCCCN1C(=O)/C(=N\NC(=O)c2ccccc2)c2cc(I)ccc21 |  | 25% | 10% |  |
| O=C(N/N=C1\C(=O)N(Cc2ccc(Cl)cc2)c2ccccc21)c1ccccc1 | 39.8% | 94.5% | 22% | Emax [1]: 72% |
| CCCCCCN1C(=O)/C(=N/NC(=O)OC(C)(C)C)c2ccccc21 |  | 75% | 27% | Activity [10]: inactive; Activity [8]: inactive; Emax [11]: 23.4% |
| CCCCCCN1C(=O)/C(=N\NC(=S)Nc2ccccc2)c2ccccc21 |  |  |  | Activity [5]: 49%; Activity [6]: 37.7% |
| CCCCCCN1C(=O)/C(=N\NC(=O)c2cc3ccccc3s2)c2ccccc21 |  | < 30% | < 30% |  |
| CCCCCCN1C(=O)/C(=N\NC(=O)c2ccccc2)c2cc(F)ccc21 | 33.8% | 57% | 46% | Activity [1]: inactive; Activity [10]: inactive |
| O=C(N/N=C1\C(=O)N(CCC2CCCCC2)c2ccccc21)Nc1ccccc1 |  |  |  | Activity [5]: < 40%; Activity [6]: < 40% |
| CCCCN1C(=O)/C(=N\NC(=O)c2ccccc2)c2ccccc21 | 98.9% | 86% | 70% | Emax [8]: 69%; Ki [9]: 19.3 nM |

| Compound | Emax [2] | Activity [3] | Activity [4] | other results |
| --- | --- | --- | --- | --- |
| CCCCCCN1C(=O)/C(=N\NC(=O)C23CC4CC(CC(C4)C2)C3)c2ccccc21 |  | 82.6% | 90.7% | Emax [8]: 34.6%; Emax [11]: 32.1% |
| CCCCCCN1C(=O)/C(=N\NC(=O)c2ccccc2)c2cc(Cl)ccc21 |  | 9% | 6% |  |
| CN1CCCCC1Cn1cc(C(=O)c2cc([N+](=O)[O-])ccc2I)c2ccccc21 (configuration not stated) |  |  |  | Activity [12]: inactive |
| CCCCCCN1C(=O)/C(=N\NC(=O)c2ccccc2)c2cc(OC)ccc21 |  | 26% | 17% |  |
| CCCCCCN1C(=O)/C(=N\NC(=O)CCCCC)c2ccccc21 |  | 45.2% | 36.6% |  |
| CCCCCCN1C(=O)/C(=N\NC(=O)Nc2ccccc2)c2ccccc21 |  |  |  | Activity [5]: < 40%; Activity [6]: < 40% |
| O=C(Cc1ccccc1)N/N=C1\C(=O)N(CCC2CCCCC2)c2ccccc21 | 21% |  |  | Activity [5]: 88.8%; Activity [6]: 47.2%; Emax [1]: 75% |
| CCCCCCN1C(=O)/C(=N\NC(=O)c2ccccc2)c2cc(C)ccc21 |  | 22% | 1% |  |
| CCCCCCN1C(=O)/C(=N\NC(=O)OC(C)(C)C)c2ccccc21 | 43.4% | 85.1% | 82.3% | Emax [1]: 92%; Ki [9]: 13.9 nM |
| CCCCCN1C(=O)/C(=N\NC(=O)c2ccccc2)c2ccccc21 | 68.5% | 95% | 80% | Emax [1]: 95.1% |
| CCCCCCN1C(=O)/C(=N\NC(=O)c2ccccc2)c2cccc(I)c21 |  | 61% | 66% | Activity [1]: inactive; Activity [10]: inactive; Emax [11]: 55% |
| CCCCCCN1C(=O)/C(=N\NC(=O)c2ccccc2)c2cccc(C)c21 | 34.2% | 67% | 68% | Activity [1]: inactive; Activity [10]: inactive |
| CCCN1C(=O)/C(=N\NC(=O)c2ccccc2)c2ccccc21 | 61.4% | 43% | 32% | Activity [1]: inactive; Activity [10]: inactive |
| CCCCCCN1C(=O)/C(=N\NC(=O)C2CCCCC2)c2ccccc21 | 58% | 65.8% | 61% | Emax [8]: 40.9% |
| CCCCCCN1C(=O)/C(=N\NC(=O)c2ccc(OC)cc2)c2ccccc21 | 49.5% | 81.7% | 56% | Emax [1]: 71% |
| CCCCCCN1C(=O)/C(=N\NC(=O)c2ccccc2)c2ccccc21 | 68.8% |  |  | Activity [5]: 95.5%; Activity [6]: 92.8%; Emax [1]: 59.7%; Ki [9]: 44.3 nM; Activity [13]: Active; ED90 [14]: 12 mg/kg; Activity [15]: Active; Activity [16]: Non-toxic |
| O=C(N/N=C1\C(=O)N(CCC2CCCCC2)c2ccccc21)c1ccccc1 | 55.6% |  |  | Activity [5]: 96%; Activity [6]: 79.8%; Emax [1]: 56.8%; Ki [9]: 58.8 nM |
| CCCCCCN1C(=O)/C(=N/NS(=O)(=O)c2ccccc2)c2ccccc21 |  |  |  | Activity [5]: < 40%; Activity [6]: < 40% |
| CCCCCCN1C(=O)/C(=N\NC(=O)c2ccc3ccccc3c2)c2ccccc21 |  | < 30% | < 30% |  |

— ChEMBL document CHEMBL1156573, “Design and synthesis of a novel series of N-alkyl isatin acylhydrazone derivatives that act as selective cannabinoid receptor 2 agonists for the treatment of neuropathic pain” (J Med Chem, 2008)
